Data: ChEMBL document CHEMBL1795245, “Pyrazoline based MAO inhibitors: synthesis, biological evaluation and SAR studies” (Bioorg Med Chem Lett, 2011)

What was measured:
[1] = target: T1, Amine oxidase [flavin-containing] A (Homo sapiens, UniProt P21397); test: Inhibition of human MAO-A expressed in BTI insect cells using p-tyramine as substrate after 60 mins
T1 sequence (P21397 whole entry): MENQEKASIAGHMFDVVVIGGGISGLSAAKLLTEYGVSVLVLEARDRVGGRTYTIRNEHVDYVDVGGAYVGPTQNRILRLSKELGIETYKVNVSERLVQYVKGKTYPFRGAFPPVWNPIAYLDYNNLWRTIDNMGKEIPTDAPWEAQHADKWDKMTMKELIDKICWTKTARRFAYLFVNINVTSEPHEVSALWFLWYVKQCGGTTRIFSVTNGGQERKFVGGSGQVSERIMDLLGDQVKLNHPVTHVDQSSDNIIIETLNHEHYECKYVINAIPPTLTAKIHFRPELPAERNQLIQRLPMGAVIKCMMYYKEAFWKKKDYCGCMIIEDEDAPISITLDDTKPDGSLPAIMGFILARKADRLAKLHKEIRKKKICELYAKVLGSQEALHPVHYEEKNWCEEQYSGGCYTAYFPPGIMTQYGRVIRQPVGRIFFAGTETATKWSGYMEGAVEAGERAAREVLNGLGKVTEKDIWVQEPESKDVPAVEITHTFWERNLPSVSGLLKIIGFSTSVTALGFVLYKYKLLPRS

[2] = target: T1, Amine oxidase [flavin-containing] A; test: Competitive inhibition of human MAO-A expressed in BTI insect cells using p-tyramine as substrate after 60 mins; conditions: 1 h
[3] = target: T1, Amine oxidase [flavin-containing] A; test: Reversible inhibition of human MAO-A expressed in BTI insect cells using p-tyramine as substrate after 60 mins; conditions: 1 h
[4] = target: T2, Amine oxidase [flavin-containing] B (Homo sapiens, UniProt P27338); test: Inhibition of human MAO-B expressed in BTI insect cells using p-tyramine as substrate after 60 mins; assay type: cell-based
T2 sequence (P27338 whole entry): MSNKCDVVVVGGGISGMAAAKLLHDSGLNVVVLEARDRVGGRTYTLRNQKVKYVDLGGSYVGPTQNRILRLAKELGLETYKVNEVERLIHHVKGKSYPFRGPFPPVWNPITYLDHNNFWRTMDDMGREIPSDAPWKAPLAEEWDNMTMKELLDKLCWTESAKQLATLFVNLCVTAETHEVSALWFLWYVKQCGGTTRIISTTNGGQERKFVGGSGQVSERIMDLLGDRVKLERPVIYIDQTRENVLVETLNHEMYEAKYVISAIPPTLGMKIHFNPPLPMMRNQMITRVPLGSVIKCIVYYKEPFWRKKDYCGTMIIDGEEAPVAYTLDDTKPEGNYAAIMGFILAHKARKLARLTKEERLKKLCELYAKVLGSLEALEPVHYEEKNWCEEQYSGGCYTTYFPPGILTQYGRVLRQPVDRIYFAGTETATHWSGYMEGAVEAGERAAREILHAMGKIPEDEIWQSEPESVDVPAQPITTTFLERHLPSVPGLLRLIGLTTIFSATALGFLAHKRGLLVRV

Homo sapiens = species on record: Homo sapiens; test: Selectivity index, ratio of Ki for human MAO-A to Ki for human MAO-B expressed in BTI insect cells

SMILES | Ki [1] [µM] | inhibition (INH) [2] | inhibition (INH) [3] | Ki [4] [µM] | Ratio Ki (Homo sapiens)
COc1cccc(NC(=S)N2N=C(c3ccccc3)CC2c2ccc(O)cc2)c1 (centres undefined) | 0.35 | Active | Active | 355 | 0.000988
Cc1ccc(NC(=S)N2N=C(c3ccccc3)CC2c2ccc(O)cc2)cc1 (centres undefined) | 0.36 | Active | Active | 300 | 0.001
Cc1ccc(C2CC(c3ccccc3)=NN2C(N)=O)cc1 (centres undefined) | 0.49 | Active | Active | 3.2 | 0.153
NC(=S)N1N=C(c2ccccc2)CC1c1ccncc1 (centres undefined) | 0.456 | Active | Active | 4 | 0.114
O=C(NCCN1CCOCC1)c1ccc(Cl)cc1 [MOCLOBEMIDE] |  | Active | Active |  | 
Cc1ccc(C2CC(c3ccccc3)=NN2C(=N)N)cc1 (centres undefined) | 0.4 | Active | Active | 4.11 | 0.099
NC(=O)N1N=C(c2ccccc2)CC1c1ccncc1 (centres undefined) | 7 | Active | Active | 4.79 | 1.46
COc1ccc(NC(=S)N2N=C(c3ccccc3)CC2c2ccccc2O)cc1 (centres undefined) | 0.17 | Active | Active | 60.2 | 0.001
COc1ccc(NC(=S)N2N=C(c3ccccc3)CC2c2ccc(O)cc2)cc1 (centres undefined) | 0.09 | Active | Active | 401 | 0.000226
Cc1cccc(NC(=S)N2N=C(c3ccccc3)CC2c2ccccc2O)c1 (centres undefined) | 0.3 | Active | Active | 250 | 0.001
Cc1cccc(NC(=S)N2N=C(c3ccccc3)CC2c2ccc(O)cc2)c1 (centres undefined) | 0.13 | Active | Active | 256 | 0.000509
NC(=O)N1N=C(c2ccccc2)CC1c1ccc(Cl)cc1 (centres undefined) | 0.3 | Active | Active | 1.66 | 0.181
COc1ccccc1NC(=S)N1N=C(c2ccccc2)CC1c1ccccc1O (centres undefined) | 0.31 | Active | Active | 60 | 0.005
COc1ccccc1NC(=S)N1N=C(c2ccccc2)CC1c1ccc(O)cc1 (centres undefined) | 2.15 | Active | Active | 2130 | 0.001
COc1ccc(C2CC(c3ccccc3)=NN2C(N)=O)cc1 (centres undefined) | 0.98 | Active | Active | 1.88 | 0.521
Cc1ccc(NC(=S)N2N=C(c3ccccc3)CC2c2ccccc2O)cc1 (centres undefined) | 0.29 | Active | Active | 69.9 | 0.004
COc1cccc(NC(=S)N2N=C(c3ccccc3)CC2c2ccccc2O)c1 (centres undefined) | 0.1 | Active | Active | 979 | 0.000102
C#CCN(C)[C@H](C)Cc1ccccc1 [SELEGILINE] |  | Active | Active |  | 
N=C(N)N1N=C(c2ccccc2)CC1c1ccc(Cl)cc1 (centres undefined) | 0.15 | Active | Active | 4.22 | 0.035
Cc1ccccc1NC(=S)N1N=C(c2ccccc2)CC1c1ccccc1O (centres undefined) | 0.25 | Active | Active | 22 | 0.001
N=C(N)N1N=C(c2ccccc2)CC1c1ccncc1 (centres undefined) | 0.67 | Active | Active | 4.8 | 0.14
Cc1ccccc1NC(=S)N1N=C(c2ccccc2)CC1c1ccc(O)cc1 (centres undefined) | 0.31 | Active | Active | 309 | 0.001
